Laboratory results as given in ChEMBL document CHEMBL4665869, “New thiazolopyrimidine as anticancer agents: Synthesis, biological evaluation, DNA binding, molecular modeling and ADMET study” (Bioorg Med Chem Lett, 2020).
≈ marks a conversion by molar mass, not a printed value.

Biological target: DNA
Assay: Displacement of methyl green from DNA (unknown origin) assessed as DNA intercalation after 24 hrs by colorimetric assay
Assay type: nucleic-acid assay

SMILES	IC50
COc1cc(/C=C/C2=CC(c3cc(OC)c(OC)c(OC)c3)N3C=CSC3=N2)cc(OC)c1OC (configuration not stated)	55.42 µg/mL (≈ 112 µM)
COc1ccc(/C=C/C2=CC(c3ccc(OC)c(OC)c3)N3C=C(C)SC3=N2)cc1OC (configuration not stated)	58.32 µg/mL (≈ 129 µM)
COc1ccc(/C=C/C2=CC(c3ccc(OC)cc3)N3C=C(C)SC3=N2)cc1 (configuration not stated)	41.37 µg/mL (≈ 106 µM)
CC1=CN2C(=NC(/C=C/c3cccs3)=CC2c2cccs2)S1 (configuration not stated)	76.15 µg/mL (≈ 222 µM)
Cc1ccc(/C=C/C2=CC(c3ccc(C)cc3)N3C=CSC3=N2)cc1 (configuration not stated)	62.74 µg/mL (≈ 182 µM)
CC1=CSC2=NC(/C=C/c3ccc(C)cc3)=CC(c3ccc(C)cc3)N12 (configuration not stated)	83.41 µg/mL (≈ 233 µM)
CCOC(=O)C1=CSC2=NC(/C=C/c3ccc(OC)cc3)=CC(c3ccc(OC)cc3)N12 (configuration not stated)	28.38 µg/mL (≈ 63.3 µM)
Clc1ccc(/C=C/C2=CC(c3ccc(Cl)cc3)N3C=CSC3=N2)cc1 (configuration not stated)	56.33 µg/mL (≈ 146 µM)
CC1=CSC2=NC(/C=C/c3ccc(Cl)cc3)=CC(c3ccc(Cl)cc3)N12 (configuration not stated)	50.91 µg/mL (≈ 127 µM)
CCOC(=O)C1=CSC2=NC(/C=C/c3ccc(C)cc3)=CC(c3ccc(C)cc3)N12 (configuration not stated)	31.49 µg/mL (≈ 75.6 µM)
COc1ccc(/C=C/C2=CC(c3ccc(OC)cc3)N3C(C)=CSC3=N2)cc1 (configuration not stated)	42.5 µg/mL (≈ 109 µM)
CCOC(=O)C1=CSC2=NC(/C=C/c3cccs3)=CC(c3cccs3)N12 (configuration not stated)	66.01 µg/mL (≈ 165 µM)
